“And” between values parts separate entries of the source, which are not always exact repeats. Equal entries are not always repeated. Where two headings read alike, the source gives them in different places.
Tests used:
[1] = system: P. falciparum Dd2-2D4; assay: P. falciparum asexual blood stage (ABS) growth assay, SYBR Green, 72 h, wild-type parasites; format: cell-based, Plasmodium falciparum
Protocol: Parasites were maintained under standard culture conditions as described previously[56],[57]. […] The P. falciparum Dd2 cell lines used in this study (Dd2-2D4, halofuginone-induced, and HFGR-I) have previously undergone whole genome sequencing in our labs.
This assay was performed as previously described[8]. In short, P. falciparum erythrocytic-stage parasites at 1% parasitemia and 1% hematocrit in RPMI + 0.5% Albumax were seeded at 40 μL/well in 384-well plates with test compounds in triplicate, dose-response format with 10 μM dihydroartemisinin as a kill-control and blank (no compound) wells as a growth-control. […] After 72 h, growth was quantified by measuring fluorescence (Molecular Devices SpectraMax iD5) following SYBR Green 1 staining. Data were analyzed in Excel and plotted in PRISM (V. 8.4.3–9.1.0, GraphPad).

[2] = target: HsProRS (Homo sapiens, UniProt P07814); assay: TR-FRET ligand displacement assay with tracer MAT379 (CoraFluor-1-Halo and anti-His6 antibody formats); format: binding; set-up: made in house; host or cells: E. coli SoluBL-21; conditions: for TR-FRET dose-response, normalized signal (SI Fig 11): individual replicates
HsProRS, sequence (P07814 996-1512): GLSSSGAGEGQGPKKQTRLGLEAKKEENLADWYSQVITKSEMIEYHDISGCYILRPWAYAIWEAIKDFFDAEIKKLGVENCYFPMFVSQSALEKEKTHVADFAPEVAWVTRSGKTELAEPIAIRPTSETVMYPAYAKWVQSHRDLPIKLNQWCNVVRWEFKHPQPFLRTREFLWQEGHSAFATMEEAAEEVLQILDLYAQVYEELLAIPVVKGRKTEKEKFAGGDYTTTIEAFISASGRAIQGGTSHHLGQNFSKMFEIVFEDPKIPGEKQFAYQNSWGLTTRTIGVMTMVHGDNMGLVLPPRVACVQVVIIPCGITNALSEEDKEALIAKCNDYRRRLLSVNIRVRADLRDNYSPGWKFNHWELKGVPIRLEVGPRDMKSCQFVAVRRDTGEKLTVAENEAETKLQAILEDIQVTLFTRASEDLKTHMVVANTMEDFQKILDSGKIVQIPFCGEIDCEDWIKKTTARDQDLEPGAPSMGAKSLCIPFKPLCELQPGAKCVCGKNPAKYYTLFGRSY

[3] = target: T1, PfcProRS (Plasmodium falciparum, UniProt Q8I5R7); format: binding; conditions: single replicates
T1 construct: made in house; host or cells: E. coli SoluBL-21
T1 sequence (Q8I5R7 249-746): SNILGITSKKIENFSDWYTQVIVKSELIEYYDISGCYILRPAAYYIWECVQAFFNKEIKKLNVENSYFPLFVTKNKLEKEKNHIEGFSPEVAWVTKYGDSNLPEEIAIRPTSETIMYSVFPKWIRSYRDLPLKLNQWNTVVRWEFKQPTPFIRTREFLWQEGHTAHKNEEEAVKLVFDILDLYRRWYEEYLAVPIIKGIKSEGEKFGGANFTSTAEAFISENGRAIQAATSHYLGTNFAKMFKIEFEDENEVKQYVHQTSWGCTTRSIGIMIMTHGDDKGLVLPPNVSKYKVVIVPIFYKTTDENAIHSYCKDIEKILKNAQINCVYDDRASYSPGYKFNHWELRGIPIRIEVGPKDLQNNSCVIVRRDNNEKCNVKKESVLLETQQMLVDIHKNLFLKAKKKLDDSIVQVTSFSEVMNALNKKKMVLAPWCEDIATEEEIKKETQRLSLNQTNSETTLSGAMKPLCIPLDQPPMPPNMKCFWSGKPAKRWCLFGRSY

Question: Which results are given for `O=C(O)CCCC(=O)Nc1nccnc1C(=O)NC1Cc2ccccc2C1` [compound 22]?
Answer: dose-response value per replicate (SI Fig 2g) ([1]; Log[inhibitor] (M) -7.408): 111; EC50 ([1]; Plasmodium falciparum, DD2, SI Fig 16b, values on -log scale, read-out: ABS - Dd2-2D4 (converted)): 12.3 µM; IC50 [2]: > 10 µM; HsProRS % signal at 10 μM, + 100 μM proline ([2]; + 100 μM proline, 10 μM): 79.2%; normalized TR-FRET ligand displacement signal, dose-response replicates (SI Fig 6) ([2]; Log[inhibitor] (M) -5.000): 6.88E-01 and 7.76E-01 and 7.44E-01; TR-FRET dose-response, normalized signal (SI Fig 11) ([2]; Log[inhibitor] (M) -5.000): 7.43E-01 and 6.59E-01 and 7.38E-01; normalized TR-FRET ligand displacement signal, dose-response replicates (SI Fig 6) ([2]; Log[inhibitor] (M) -5.301): 8.82E-01 (2×) and 7.80E-01; TR-FRET dose-response, normalized signal (SI Fig 11) ([2]; Log[inhibitor] (M) -5.301): 8.33E-01 and 8.41E-01 and 8.52E-01; normalized TR-FRET ligand displacement signal, dose-response replicates (SI Fig 6) ([2]; Log[inhibitor] (M) -5.601): 8.80E-01 and 9.45E-01 and 8.65E-01; TR-FRET dose-response, normalized signal (SI Fig 11) ([2]; Log[inhibitor] (M) -5.601): 9.39E-01 and 8.79E-01 and 9.13E-01; normalized TR-FRET ligand displacement signal, dose-response replicates (SI Fig 6) ([2]; Log[inhibitor] (M) -5.904): 1.02E+00 and 1.06E+00 and 9.13E-01; TR-FRET dose-response, normalized signal (SI Fig 11) ([2]; Log[inhibitor] (M) -5.904): 9.47E-01 and 9.57E-01 and 9.01E-01; normalized TR-FRET ligand displacement signal, dose-response replicates (SI Fig 6) ([2]; Log[inhibitor] (M) -6.208): 1.04E+00 and 1.02E+00 and 9.07E-01; TR-FRET dose-response, normalized signal (SI Fig 11) ([2]; Log[inhibitor] (M) -6.208): 1.02E+00 and 9.48E-01 and 9.47E-01; normalized TR-FRET ligand displacement signal, dose-response replicates (SI Fig 6) ([2]; Log[inhibitor] (M) -6.509): 8.91E-01 and 9.55E-01 and 1.01E+00; TR-FRET dose-response, normalized signal (SI Fig 11) ([2]; Log[inhibitor] (M) -6.509): 9.53E-01 and 9.49E-01 and 9.29E-01; normalized TR-FRET ligand displacement signal, dose-response replicates (SI Fig 6) ([2]; Log[inhibitor] (M) -6.796): 1.03E+00 and 1.02E+00 and 9.73E-01; TR-FRET dose-response, normalized signal (SI Fig 11) ([2]; Log[inhibitor] (M) -6.796): 9.39E-01 and 9.96E-01 and 9.21E-01; normalized TR-FRET ligand displacement signal, dose-response replicates (SI Fig 6) ([2]; Log[inhibitor] (M) -7.108): 1.09E+00 and 9.83E-01 and 1.08E+00; TR-FRET dose-response, normalized signal (SI Fig 11) ([2]; Log[inhibitor] (M) -7.108): 9.39E-01 and 9.94E-01 and 9.05E-01; normalized TR-FRET ligand displacement signal, dose-response replicates (SI Fig 6) ([2]; Log[inhibitor] (M) -7.409): 9.62E-01 and 1.05E+00 and 9.54E-01; TR-FRET dose-response, normalized signal (SI Fig 11) ([2]; Log[inhibitor] (M) -7.409): 9.56E-01 and 9.55E-01 and 9.01E-01; normalized TR-FRET ligand displacement signal, dose-response replicates (SI Fig 6) ([2]; Log[inhibitor] (M) -7.710): 9.45E-01 and 1.01E+00 and 9.79E-01; TR-FRET dose-response, normalized signal (SI Fig 11) ([2]; Log[inhibitor] (M) -7.710): 9.86E-01 and 9.70E-01 and 9.64E-01; normalized TR-FRET ligand displacement signal, dose-response replicates (SI Fig 6) ([2]; Log[inhibitor] (M) -8.000): 1.07E+00 and 1.06E+00 and 9.51E-01; TR-FRET dose-response, normalized signal (SI Fig 11) ([2]; Log[inhibitor] (M) -8.000): 9.84E-01 and 9.81E-01 and 9.67E-01; normalized TR-FRET ligand displacement signal, dose-response replicates (SI Fig 6) ([2]; Log[inhibitor] (M) -8.301): 9.49E-01 and 8.91E-01 and 8.92E-01; TR-FRET dose-response, normalized signal (SI Fig 11) ([2]; Log[inhibitor] (M) -8.301): 9.40E-01 and 1.01E+00 and 9.29E-01; normalized TR-FRET ligand displacement signal, dose-response replicates (SI Fig 6) ([2]; Log[inhibitor] (M) -8.602): 9.06E-01 and 1.02E+00 and 1.07E+00; TR-FRET dose-response, normalized signal (SI Fig 11) ([2]; Log[inhibitor] (M) -8.602): 9.70E-01 and 9.81E-01 and 9.77E-01; normalized TR-FRET ligand displacement signal, dose-response replicates (SI Fig 6) ([2]; Log[inhibitor] (M) -9.000): 1.02E+00 and 8.38E-01 and 9.71E-01; TR-FRET dose-response, normalized signal (SI Fig 11) ([2]; Log[inhibitor] (M) -9.000): 1.01E+00 and 9.79E-01 and 9.47E-01; normalized TR-FRET ligand displacement signal, dose-response replicates (SI Fig 6) ([2]; Log[inhibitor] (M) -9.301): 9.40E-01 and 9.94E-01 and 9.82E-01; TR-FRET dose-response, normalized signal (SI Fig 11) ([2]; Log[inhibitor] (M) -9.301): 9.53E-01 and 9.63E-01 and 8.99E-01; HsProRS % signal at 10 μM ([2]; no added proline/ATP (-), 10 μM): 71.3%; IC50 ([2]; read-out: HsProRS IC50 + 100 μM proline, + 100 μM proline): > 10 µM; dose-response signal (normalized), SI Fig 8 ([3]; Log[inhibitor] (M) -5.000): 9.06E-01 and 9.64E-01 and 8.26E-01; dose-response signal (normalized), SI Fig 8 ([3]; Log[inhibitor] (M) -5.301): 1.01E+00 (2×) and 9.72E-01; dose-response signal (normalized), SI Fig 8 ([3]; Log[inhibitor] (M) -5.601): 9.26E-01 and 1.02E+00 and 9.22E-01; dose-response signal (normalized), SI Fig 8 ([3]; Log[inhibitor] (M) -5.904): 9.72E-01 and 1.05E+00 and 1.09E+00; dose-response signal (normalized), SI Fig 8 ([3]; Log[inhibitor] (M) -6.208): 1.07E+00 (2×) and 9.87E-01; dose-response signal (normalized), SI Fig 8 ([3]; Log[inhibitor] (M) -6.509): 1.07E+00 and 1.14E+00 and 1.02E+00; dose-response signal (normalized), SI Fig 8 ([3]; Log[inhibitor] (M) -6.796): 9.89E-01 and 1.07E+00 and 9.33E-01; dose-response signal (normalized), SI Fig 8 ([3]; Log[inhibitor] (M) -7.108): 1.06E+00 and 1.00E+00 and 1.02E+00; dose-response signal (normalized), SI Fig 8 ([3]; Log[inhibitor] (M) -7.409): 9.62E-01 and 1.08E+00 and 9.97E-01; dose-response signal (normalized), SI Fig 8 ([3]; Log[inhibitor] (M) -7.710): 1.02E+00 and 9.90E-01 and 1.13E+00; dose-response signal (normalized), SI Fig 8 ([3]; Log[inhibitor] (M) -8.000): 1.05E+00 (2×) and 1.10E+00; dose-response signal (normalized), SI Fig 8 ([3]; Log[inhibitor] (M) -8.301): 1.05E+00 and 1.11E+00 and 1.20E+00; dose-response signal (normalized), SI Fig 8 ([3]; Log[inhibitor] (M) -8.602): 9.67E-01 and 1.09E+00 and 1.08E+00; dose-response signal (normalized), SI Fig 8 ([3]; Log[inhibitor] (M) -9.000): 9.27E-01 and 1.05E+00 and 1.07E+00; dose-response signal (normalized), SI Fig 8 ([3]; Log[inhibitor] (M) -9.301): 1.08E+00 and 1.15E+00 and 9.88E-01
